The record followed here is patent US20190292494A1, “STABILIZATION OF ENZYMES IN COMPOSITIONS” (BASF SE, priority 2016, published 2019).

Common to all, as to type: biochemical
In assay [1] the target is T1, protease according SEQ ID No: 1 (Lederbergia lenta, UniProt P29599, R99E). The conditions noted are these: for protease activity: 2.3% (w/w) diol, 4.4 μM 4-FPBA, 4.8 mM Suc-AAPF-pNA, 16 nM protease, pH 7.5, activity with 4-FPBA only = 100%. How it is done: (§1) Proteolytic activity of proteases has been measured using succinyl-Ala-Ala-Pro-Phe-p-nitroanilide (Suc-AAPF-pNA, short AAPF) as substrate, wherein pNA is cleaved from the substrate molecule by proteolytic cleavage, resulting in release of yellow color of free pNA which was quantified by measuring OD405.
T1 sequence (P29599 whole entry R99E): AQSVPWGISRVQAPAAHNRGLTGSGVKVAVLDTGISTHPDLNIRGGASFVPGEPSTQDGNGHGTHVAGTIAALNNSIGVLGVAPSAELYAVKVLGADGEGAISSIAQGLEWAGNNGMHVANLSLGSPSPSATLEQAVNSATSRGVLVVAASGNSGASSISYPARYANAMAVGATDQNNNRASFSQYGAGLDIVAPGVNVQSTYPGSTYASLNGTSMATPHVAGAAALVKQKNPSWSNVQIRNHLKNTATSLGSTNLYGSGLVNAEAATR
(§2) If not indicated otherwise, enzymatic activity was measured at 30° C.
50 mM phosphate buffer (pH 7.5), 4.4 μM 4-FPBA, 4.8 mM Suc-AAPF-pNA, and 16 nM protease according SEQ ID No: 1 with 2.3% w/w diol or without diol.
The protease activity was measured in presence of the Suc-AAPF-pNA substrate and the 4-FPBA only, which gives the 100% value in Table A.
The protease activity was also measured in the presence of AAPF-pNA substrate, 4-FPBA and 2.3% diol.

The target of assay [2] is T1, protease according SEQ ID No: 1. Particulars: for protease activity: activity without BBA and diol = 100%. How it is done: as §1, §2
50 mM phosphate buffer (pH 7.5), 137 μM BBA, 4.8 mM Suc-AAPF-pNA, and 16 nM protease according SEQ ID No: 1 with 135 mM diol or without diol.
The protease activity was measured in presence of the Suc-AAPF-pNA substrate and in the absence of BBA and diol, which gives the 100% value in Table B.
The protease activity was measured in presence of the Suc-AAPF-pNA substrate and BBA, which gives the stabilization of protease by BBA—see Table C-I.
The protease activity was then measured in presence of the Suc-AAPF-pNA substrate and diol (without BBA), which gives the stabilization of protease by diol—see Table C-II.
The protease activity was then measured in presence of the Suc-AAPF-pNA substrate and BBA and diol, which gives the stabilization of protease by BBA and diol—see Table C-III.

The target is the same in assay [3]. Briefly: Mixtures of diols with 4-FPBA: protease activity (Suc-AAPF-pNA). How it is done:
as §1, §2
50 mM phosphate buffer (pH 7.5), 4.4 μM 4-FPBA, 4.8 mM Suc-AAPF-pNA, and 16 nM protease according SEQ ID No: 1 with one or two diols.
The protease activity was measured in presence of the Suc-AAPF-pNA substrate and 4-FPBA and one or two diols, which gives the stabilization of protease by 4-FPBA and one or two diols—see Table D.
The protease activity in presence of the Suc-AAPF-pNA substrate and 4-FPBA only is set 100%.

Assay [4] deals with protease according to SEQ ID No: 1 (Lederbergia lenta, UniProt P29599, R99E). Briefly: Storage stability of protease at 45° C. with diol alone (proteolytic activity, Suc-AAPF-pNA). The conditions noted are these: no boron compound; for stabilization of protease by diol alone during storage (in words): storage at 45° C., 20-50% w/w diol. The protocol: as §1
protease according to SEQ ID No: 1, sequence (P29599 whole entry R99E): as above
To test the effect of diol alone towards the storage stability of proteases, a protease according to SEQ ID No: 1 was stored at 45° C. with varying concentrations of Propane-1,2-diol and Pentane-1,2-diol as indicated in Table B. 4% active protease according to SEQ ID No: 1 was present before storage for the assessment of its changes in proteolytic activity during storage.
Proteolytic activity was measured in the presence of 4.8 mM Sus-AAPF-pNa. As buffering system 50 mM phosphate buffer was used (pH 7.5). Before storage (time=0), the protease activity measured was set 100%.

“Also recorded” adds a separate entry of the source. Where two headings read alike, the source gives them in different places.

Take `OCCO` [Ethylen-1,2-glycol, ethane-1,2-diol]: the protease activity in assay [1] is listed as 54%; in assay [2] (135 mM diol with 137 μM BBA) it was 43%; in assay [2] (135 mM diol, without BBA) it was 97%.
With `CCCC(O)CO` (centres unmarked) [Pentane-1,2-diol, pentane-1,2-diol], the “inhibitory effect towards proteolytic activity (in words)” value in assay [1] (diol added to 4-FPBA, compared to the other diols used) was “strong inhibitory effect”; in assay [2] (diol alone (135 mM, without BBA), of the diols tested), “best inhibitory effect”. The “stabilization of protease by diol in the presence of BBA (in words)” value in assay [2] (135 mM diol with 137 μM BBA) was “best increasing effect on stabilization of protease; also recorded: synergistic stabilization”. Besides, in assay [3] (of the diols tested, with 4-FPBA), the “stabilization of protease in the presence of 4-FPBA (in words)” value is listed as “stabilizes protease best”. Moreover, the “stabilization of protease by diol alone during storage (in words)” value in assay [4] is recorded as “does not stabilize the protease, but rather destabilizes the protease”.
As to `CC(O)CO` (centres unmarked) [Propane-1,2-diol, propane-1,2-diol], the protease activity was 91% in assay [1]; 40% in assay [2] (135 mM diol with 137 μM BBA); 94% in assay [2] (135 mM diol, without BBA); 91% in assay [3] (Propane-1,2-diol 120 mM, Pentane-1,2-diol 0 mM, 4.4 μM 4-FPBA, 4-FPBA only = 100%). Also, the “proteolytic activity before and after storage” value was 82% in assay [4] (20% w/w diol, 1 day at 45° C.); 64% in assay [4] (20% w/w diol, 3 days at 45° C.); 46% in assay [4] (20% w/w diol, 7 days at 45° C.); 30% in assay [4] (20% w/w diol, 14 days at 45° C.); 100% in assay [4] (20% w/w diol, cero (before storage, set 100%)); 92% in assay [4] (30% w/w diol, 1 day at 45° C.). The “proteolytic activity before and after storage” value in assay [4] (30% w/w diol, 3 days at 45° C.) is given as 80%; in assay [4] (30% w/w diol, 7 days at 45° C.), 62%; in assay [4] (30% w/w diol, 14 days at 45° C.) it was 47%; in assay [4] (30% w/w diol, cero (before storage, set 100%)) it was 100%; in assay [4] (50% w/w diol, 1 day at 45° C.), 94%; in assay [4] (50% w/w diol, 3 days at 45° C.) it was 92%. The “proteolytic activity before and after storage” value is 79% in assay [4] (50% w/w diol, 7 days at 45° C.); 66% in assay [4] (50% w/w diol, 14 days at 45° C.); 100% in assay [4] (50% w/w diol, cero (before storage, set 100%)). For the same compound, in assay [4], the “stabilization of protease by diol alone during storage (in words)” value is reported as “stabilize the protease increasingly”.
With benzene boronic acid [BBA], in assay [2] (137 μM BBA, no diol), the protease activity was 66%.
